What all share (assay type): physicochemical
The nature of data set [1]: solubility of the tromethamine salt.
The nature of data set [2]: physical stability on storage.
Data set [3] is described as follows: dissolution rate compared with the free acid.
Data set [4] in a line: gravimetric vapor sorption (GVS) analysis. The text has this:
At relative humidity above 80% RH, tromethamine salt of bimatoprost acid behaves hygroscopic with a a significant moisture uptake observed. The significant uptake of moisture may be a result of the large specific surface area of the material. On desorption, the adsorbed water was rapidly lost with no equilibrium established. At the end of the gravimetric vapor sorption (GVS) cycle, at 40% RH, the overall sample mass increased by 5 wt %.

Each structure is given as a SMILES string. Structures can show the parent of a compound that is named as a salt. Where two headings read alike, the source gives them in different places.

Regarding `O=C(O)CCC/C=C/CC1C(O)CC(O)C1/C=C/C(O)CCc1ccccc1` (stereo not shown) [tromethamine salt of bimatoprost acid, tromethamine salt of 7-[3,5-Dihydroxy-2-(3-hydroxy-5-phenyl-pent-1-enyl)-cyclopentyl]-hept-5-enoic acid], the solubility in data set [1] (aqueous buffer, at pH 6.5, read-out: solubility) was more than 250 mg/mL; in data set [1] (in formulation vehicles, no surfactant needed), approximately 25 w/v %. The physical stability in data set [2] (25° C./60% RH in open container closure) and in data set [2] (40° C./75% RH in closed container closure) was more than 3 months throughout. Besides, the dissolution rate entry in data set [3] is on record as “faster dissolution rate than the free acid”. Further, in data set [4] (90% RH), the “GVS analysis: deliquescence” value was “no deliquescence”. Moreover, the “GVS analysis: hydrate formation” value in data set [4] (90% RH) is on record as “no hydrate”. Besides, the “overall sample mass increase at the end of the GVS cycle” value in data set [4] (end of GVS cycle, at 40% RH) was 5 wt %. In addition, the “XRPD re-analysis post GVS analysis (change in crystalline form)” value in data set [4] (post GVS analysis) is listed as “no change in the crystalline Form 1”. In data set [4] (relative humidity above 80% RH), the “hygroscopic behaviour (moisture uptake)” value is “hygroscopic”.

The record behind these values is patent US9447014B2, “Tromethamine salt of bimatoprost acid in crystalline form, methods for preparation, and methods for use thereof” (ALLERGAN, INC., priority 2012, dated 2016).
